The subject of one experiment is Common cutworm. As to the kind of experiment: Contact test for killing Common cutworm. In kind it is in vivo, Spodoptcra litura. The following applies: 48 h, read-out: LC50 (median lethal dose). The procedure: Leaves of cabbage were dipped in each aqueous emulsion of each active ingredient of the compounds of the invention or the reference for 10 seconds. The leaves were taken up and dried in air and put in a Petri dish. Common cutworms (second instar) were put in the Petri dish which was covered with a cover having many holes. The Petri dish was maintained in a constant temperature room at 25° C. for 48 hours and each percent mortality was determined and median lethal dose (LC50) was calculated in Finny's graphic method.

Experiment [1] has as its system Twenty-eight-spotted Ladybeetle. Put plainly: Contact test for killing Twenty-eight-spotted Ladybeetle. Type of experiment: in vivo. The following applies: Henosepilachna vigintioctopunctata, in Solanum lycopersicum, 48 h, read-out: LC50 (median lethal dose). The procedure:
Leaves of tomato were dipped in each emulsion of each active ingredient of the present invention or the reference for 10 seconds. The leaves were taken up and dired in air and put in a Petri dish. Ten of Twenty-eight-spotted Ladybeetles (second instar) were put in the Petri dish which was covered with a cover. The Petri dish was maintained in a constant temperature room at 25° C. for 48 hours and percent mortality was determined and median lethal dose (LC50) was calculated in Finny's graphic method.

The subject of the next experiment is green rice leafhopper. Put plainly: Contact test for killing green rice leafhopper. In kind it is in vivo. Conditions: Nephotettix cincticeps, 48 h, read-out: LC50 (median lethal dose). The protocol:
Stems and leaves of a rice seedling were dipped in each emulsion of each active ingredient of the present invention or a reference compound for 10 seconds and were dried in air. The stems and leaves were covered with a glass cylinder. Adult green rice leafhoppers which are resistant to the conventional organic phosphorus type insecticide were released into the glass cylinder which was covered with a cover having holes and was maintained in a constant temperature room at 25° C. for 48 hours and each percent mortality was determined and median lethal dose (LC50) was calculated in Finny's graphic method.

The next experiment relates to Green peach aphid. As to the kind of experiment: Test for killing Green peach aphid. In kind it is in vivo, Myzue persicae. The following applies: Myzus persicae, 48 h, read-out: LC50 (median lethal dose). The protocol: Each emulsifiable concentrate of the compound of the present invention or the reference compound was diluted with water to a predetermined concentration. Green peach aphid were inoculated on leaves in a Petri dish having a diameter of 3 cm and 2 ml of each emulsion was sprayed and it was covered. The Petri dish was maintained in a constant temperature room at 25° C. for 48 hours and each percent of mortality was determined and median lethal dose (LC50) was calculated in Finny's graphic method.

Another experiment concerns Kanzawa spider mite. Put plainly: Test for killing Kanzawa spider mite. Conditions: Tetranychus kanzawai, in Phaseolus vulgaris, 48 h, read-out: LC50 (median lethal dose). In kind it is in vivo. The text has this: Leaves of kidney bean was cut by a leaf-punch in a form of circle having a diameter of 1.5 cm. The leaf-discs were put on a wet filter paper on a polystyrene cup having a diameter of 7 cm. Ten of Kanzawa spider mites were inoculated on the leaf-discs in the cup. Half days after the inoculation, each solution prepared by diluting each emulsifiable concentrate of the present invention or each reference compound with a spreader (Nitten S 4,000 times manufactured by Nissan Chem.) at each predetermined concentration was sprayed by a rotary spray for 2 ml. per each cup.
Numbers of mortalities of mites were measured after 48 hours from the spraying and percent mortaliteis were calculated and median lethal dose (LC50) was calculated in Finny's graphic method.

SMILES strings stand for the structures. Converted amounts (≈) assume the structure as drawn. A value given as a limit tells only on which side of the number the result lay.

With `CC1(C)[C@@H](C(=O)OC(C#N)c2ccc(F)c(Oc3ccccc3)n2)[C@@H]1c1ccc(Cl)cc1` (relative stereo) [Compound No. 3], the LC50 in the experiment on Common cutworm is 1.3 µg/mL (≈ 2.88 µM); in experiment [1] it was 0.26 µg/mL (≈ 0.577 µM); in the experiment with green rice leafhopper it was 0.7 µg/mL (≈ 1.55 µM).

In the case of `CC(C)(C)c1ccc([C@H]2[C@H](C(=O)OC(C#N)c3ccc(F)c(Oc4ccccc4)n3)C2(C)C)cc1` (relative stereo) [Compound No. 4, Cyano(5-fluoro-6-phenoxy-2-pyridyl) methyl trans-2,2-dimethyl-3-(p-t-butylphenyl)cyclopropanecarboxylate], the LC50 in the experiment on Common cutworm was determined as 4 µg/mL (≈ 8.46 µM); with Green peach aphid, 4.6 µg/mL (≈ 9.73 µM); with green rice leafhopper, 1.3 µg/mL (≈ 2.75 µM); in the experiment with Kanzawa spider mite it was 0.32 µg/mL (≈ 0.677 µM).

Turning to `CC(C)C(C(=O)OC(C#N)c1ccc(F)c(Oc2ccccc2)n1)c1ccc(Cl)cc1` (stereo not drawn) [Compound No. 1, Cyano(5-fluoro-6-phenoxy-2-pyridyl) methyl α-isopropyl-p-chlorophenylacetate], the LC50 came to 0.43 µg/mL (≈ 0.98 µM) in the experiment with Common cutworm, 0.05 µg/mL (≈ 0.114 µM) in experiment [1], 0.26 µg/mL (≈ 0.592 µM) in the experiment on green rice leafhopper and 6.3 µg/mL (≈ 14.4 µM) with Kanzawa spider mite.

For the compound `CC(C)C(C(=O)OC(C#N)c1ccc(F)c(Oc2ccccc2)n1)c1ccc(OC(F)F)cc1` (centres unmarked) [Compound No. 2], the LC50 with Common cutworm stood at 3 µg/mL (≈ 6.38 µM); in experiment [1] it was 0.5 µg/mL (≈ 1.06 µM); in the experiment with Green peach aphid, 2.3 µg/mL (≈ 4.89 µM); in the experiment with green rice leafhopper, 0.28 µg/mL (≈ 0.595 µM); in the experiment with Kanzawa spider mite, 12 µg/mL (≈ 25.5 µM).

Regarding `CC1(C)C(C=C(Cl)Cl)C1C(=O)OC(C#N)c1ccc(F)c(Oc2ccccc2)n1` (centres unmarked) [Compound No. 5], the LC50 is 0.31 µg/mL (≈ 0.712 µM) with Common cutworm; 0.03 µg/mL (≈ 0.0689 µM) in experiment [1]; 1.84 µg/mL (≈ 4.23 µM) in the experiment on Green peach aphid; 0.4 µg/mL (≈ 0.919 µM) in the experiment with green rice leafhopper; 5.4 µg/mL (≈ 12.4 µM) in the experiment with Kanzawa spider mite.

For the compound `CC1(C)[C@H](C(=O)OC(C#N)c2ccc(F)c(Oc3ccccc3)n2)[C@@H]1C=C(Br)Br` (stereo partly drawn) [Compound No. 6, Cyano(5-fluoro-6-phenoxy-2-pyridyl) methyl (1R, cis)-2,2-dimethyl-3-(2,2-dibromovinyl)cyclopropane carboxylate], the 50% lethal concentration (LC50) in the experiment with Common cutworm was 0.24 µg/mL (≈ 0.458 µM); in experiment [1] it was 0.02 µg/mL (≈ 0.0382 µM); in the experiment with green rice leafhopper it was 0.31 µg/mL (≈ 0.591 µM).

For `CC(C)C(C(=O)OC(C#N)c1cccc(Oc2ccc(F)cc2)n1)c1ccc(Cl)cc1` (centres unmarked) [Reference Compd. A], the results for the LC50 in the experiment with Common cutworm, in the experiment with green rice leafhopper and with Kanzawa spider mite were 3.1 µg/mL (≈ 7.06 µM), 1.4 µg/mL (≈ 3.19 µM) and 100 µg/mL (≈ 228 µM), respectively.

`CC(C)C(C(=O)OC(C#N)c1cccc(Oc2ccccc2)n1)c1ccc(Cl)cc1` (centres unmarked) [Reference Compd. B]: the LC50 in the experiment with Common cutworm was determined as 1.7 µg/mL (≈ 4.04 µM); with green rice leafhopper it was 5 µg/mL (≈ 11.9 µM).

As to `CC(C)C(C(=O)OC(C#N)c1cccc(Oc2ccc(F)cc2)n1)c1ccc(OC(F)F)cc1` (centres unmarked) [Reference Compd. C], the LC50 in the experiment with Common cutworm is 5 µg/mL (≈ 10.6 µM); in experiment [1], 21 µg/mL (≈ 44.6 µM); in the experiment with green rice leafhopper, 76 µg/mL (≈ 162 µM); in the experiment with Kanzawa spider mite, above 100 µg/mL.

As to `CC(C)C(C(=O)OC(C#N)c1cccc(Oc2ccccc2)n1)c1ccc(OC(F)F)cc1` (centres unmarked) [Reference Compd. D], the LC50 in the experiment on Common cutworm is 9 µg/mL (≈ 19.9 µM); in experiment [1] it was 0.9 µg/mL (≈ 1.99 µM); in the experiment with Green peach aphid, 26 µg/mL (≈ 57.5 µM); in the experiment on green rice leafhopper it was 6 µg/mL (≈ 13.3 µM).

In the case of `CC1(C)C(C(=O)OC(C#N)c2cccc(Oc3ccc(F)cc3)n2)C1c1ccc(Cl)cc1` (centres unmarked) [Reference Compd. E], the 50% lethal concentration (LC50) with Common cutworm was 13 µg/mL (≈ 28.8 µM); with green rice leafhopper, 16 µg/mL (≈ 35.5 µM).

With `CC1(C)C(C(=O)OC(C#N)c2cccc(Oc3ccccc3)n2)C1c1ccc(Cl)cc1` (centres unmarked) [Reference Compd. F], the LC50 in the experiment on Common cutworm turned out to be 15 µg/mL (≈ 34.6 µM); in experiment [1], 2 µg/mL (≈ 4.62 µM).

`CC(C)(C)c1ccc(C2C(C(=O)OC(C#N)c3cccc(Oc4ccc(F)cc4)n3)C2(C)C)cc1` (centres unmarked) [Reference Compd. G]: the LC50 turned out to be 12 µg/mL (≈ 25.4 µM) in the experiment with Common cutworm, 32 µg/mL (≈ 67.7 µM) in the experiment on green rice leafhopper and 2 µg/mL (≈ 4.23 µM) in the experiment with Kanzawa spider mite.

In the case of `CCCCc1ccc(C2C(C(=O)OC(C#N)c3cccc(Oc4ccccc4)n3)C2(C)C)cc1` (centres unmarked) [Reference Compd. H], the 50% lethal concentration (LC50) worked out at 12 µg/mL (≈ 26.4 µM) in the experiment on Green peach aphid and 6.4 µg/mL (≈ 14.1 µM) in the experiment on green rice leafhopper.

For `CC1(C)C(C=C(Cl)Cl)C1C(=O)OCc1cccc(Oc2ccccc2)n1` (centres unmarked) [Reference Compd. I], the LC50 with Common cutworm is 10 µg/mL (≈ 25.5 µM); in the experiment with Green peach aphid, 34 µg/mL (≈ 86.7 µM); in the experiment on green rice leafhopper, 3.7 µg/mL (≈ 9.43 µM); in the experiment with Kanzawa spider mite, above 100 µg/mL.

As usually defined, the LC50 is the concentration that kills 50% of the test population.

Values taken from US4504483A, “Fluorine substituted pyridine methyl esters and insecticidal and acaricidal compositions thereof” (Nissan Chemical Industries Ltd., priority 1981, dated 1985).
